Here are results for one compound from US7851487B2, “Use of tetrahydropyridines in the treatment of central nervous system disorders” (The Research Foundation of State University of New York, priority 2006, dated 2010).

One assay deals with T1, Dopamine D2L (Homo sapiens, UniProt P14416).
T1 construct: host or cells: CHO cells
Nature of the assay: Radioligand binding, Dopamine D2L ([3H]Spiperone). As for the experimental part:
(§1) The assays utilized human neuroreceptors and were performed under the experimental parameters set forth in Table 2 using standard techniques.
(§2) For Table 3, IC50 values were determined by non-linear, least squares regression analysis using Data Analysis Toolbox™ (MDL Information Systems, San Leandro, Calif., USA). Inhibition constants (KI) were calculated using the equation of Cheng and Prusoff (Cheng, Y., et al. Biochem. Pharmacol. 22:3099-3108, 1973) using the observed IC50 of the tested compound, the concentration of radioligand employed in the assay, and the values for the KD of the ligand. The Hill coefficient (nH), defining the slope of the competitive binding curve, was calculated using the Data Analysis Toolbox™. Biochemical assay results are presented as the percent inhibition of specific binding or activity unless indicated otherwise. The experiments summarized in Table 3 utilized human dopamine D1, D2 s, D21, D3, D4.2, D4.4, serotonin 5HT1A, 5HT2A, 5HT2C, 5HT6, 5HT7, dopamine transporter (DAT), serotonin transporter (SERT) and the norepinephrine transporter (NET), as indicated in Table 3.

The target of the next assay is Dopamine D3 (Homo sapiens, UniProt P35462). Nature of the assay: Radioligand binding, Dopamine D3. The conditions noted are these: Dopamine D3, 10 μM; read-out: Percentage Inhibition. As for the experimental part:
as §1, §2

In another assay the target is T2, Serotonin 5HT2C (Homo sapiens, UniProt P28335).
T2 construct: host or cells: CHO-K1 cells
T2 sequence (P28335 33-458): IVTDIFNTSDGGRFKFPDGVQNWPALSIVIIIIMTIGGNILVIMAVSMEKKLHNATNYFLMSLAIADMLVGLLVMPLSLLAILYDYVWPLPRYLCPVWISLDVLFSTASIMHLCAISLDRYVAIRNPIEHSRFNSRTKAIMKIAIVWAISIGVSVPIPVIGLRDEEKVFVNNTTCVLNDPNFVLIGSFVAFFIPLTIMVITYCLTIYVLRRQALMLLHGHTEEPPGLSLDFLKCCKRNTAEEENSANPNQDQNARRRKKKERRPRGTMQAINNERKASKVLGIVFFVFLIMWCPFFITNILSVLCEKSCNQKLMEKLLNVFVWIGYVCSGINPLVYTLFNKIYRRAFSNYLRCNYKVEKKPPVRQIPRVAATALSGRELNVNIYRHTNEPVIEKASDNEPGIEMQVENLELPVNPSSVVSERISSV
Nature of the assay: Radioligand binding, Serotonin 5HT2C ([3H]Mesulergine). How it is done:
as §1, §2

The target in a further assay is T3, Serotonin 5HT6 (Homo sapiens, UniProt P50406).
T3 construct: host or cells: HeLa cells
Nature of the assay: Radioligand binding, Serotonin 5HT6 ([3H]LSD). How it is done:
as §1, §2

For assay [1], the target named is T4, Dopamine transporter (DAT) (Homo sapiens, UniProt Q01959).
T4 construct: host or cells: CHO-K1 cells
Briefly: Radioligand binding, Dopamine transporter (DAT) ([125I]RTI-55). As for the experimental part:
as §1, §2

The test system of the next assay is ckr mouse. Nature of the assay: Prepulse inhibition (PPI) of the startle reflex in ckr mice. It is filed as in vivo. The conditions noted are these: 10 mg/kg. How it is done: To obtain the ckr mouse model presented in this Example, a representative compound 2 as set forth in Example 3 was used to investigate a standard measure of sensorimotor gating of the startle reflex. Sensorimotor gating of the startle reflex was assessed via measures of prepulse inhibition (PPI), which is the reduction in startle magnitude when the startling stimulus is preceded immediately by a weak prepulse. This measurement is valuable because the relative loss of PPI has been established in inherited neurodevelopmental disorders, such as schizophrenia in humans, as well as in rats after treatment with certain classes of drugs, including serotonin (5-HT) agonists. In animal models, the PPI test is considered to have good face, predictive and construct validity for sensorimotor gating deficits in schizophrenia.
A stock solution of compound 2 was dissolved in DMSO, and then diluted to 10 mg/10 ml with distilled water such that the final concentration of DMSO was 0.5%. […]
Startle reactivity was measured using a startle chamber (SR-LAB, San Diego Instruments, San Diego, Calif.). […]
The protocol for measuring PPI was adapted from known techniques. […] The startle response was recorded as the average movement detected over 65 ms following the pulse. […]
The startle amplitude was measured as the average startle response for the pulse-alone trials. […]

T1 sequence (P14416 whole entry): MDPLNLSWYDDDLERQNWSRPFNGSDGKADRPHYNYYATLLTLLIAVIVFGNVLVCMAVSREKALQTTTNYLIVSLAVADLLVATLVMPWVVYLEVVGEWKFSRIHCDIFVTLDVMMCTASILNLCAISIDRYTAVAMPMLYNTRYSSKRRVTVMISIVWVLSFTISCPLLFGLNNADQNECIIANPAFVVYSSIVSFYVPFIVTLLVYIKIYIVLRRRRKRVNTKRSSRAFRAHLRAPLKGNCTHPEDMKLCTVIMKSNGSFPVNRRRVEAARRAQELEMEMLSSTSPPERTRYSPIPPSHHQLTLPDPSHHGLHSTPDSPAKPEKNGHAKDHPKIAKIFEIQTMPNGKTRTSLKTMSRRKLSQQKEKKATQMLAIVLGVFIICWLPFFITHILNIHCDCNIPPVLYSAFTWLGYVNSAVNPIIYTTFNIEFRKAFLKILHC
T3 sequence (P50406 whole entry): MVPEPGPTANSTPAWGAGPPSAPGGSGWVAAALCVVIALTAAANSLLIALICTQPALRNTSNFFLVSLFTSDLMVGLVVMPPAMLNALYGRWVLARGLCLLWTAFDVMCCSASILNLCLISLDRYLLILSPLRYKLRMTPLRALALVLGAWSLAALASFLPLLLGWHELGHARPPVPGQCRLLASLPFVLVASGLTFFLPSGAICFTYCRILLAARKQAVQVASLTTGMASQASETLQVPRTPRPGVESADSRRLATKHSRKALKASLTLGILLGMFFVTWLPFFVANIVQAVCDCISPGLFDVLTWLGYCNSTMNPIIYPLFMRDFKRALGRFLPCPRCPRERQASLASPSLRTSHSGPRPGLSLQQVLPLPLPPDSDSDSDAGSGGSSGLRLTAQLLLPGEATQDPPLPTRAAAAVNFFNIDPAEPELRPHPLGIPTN
T4 sequence (Q01959 whole entry): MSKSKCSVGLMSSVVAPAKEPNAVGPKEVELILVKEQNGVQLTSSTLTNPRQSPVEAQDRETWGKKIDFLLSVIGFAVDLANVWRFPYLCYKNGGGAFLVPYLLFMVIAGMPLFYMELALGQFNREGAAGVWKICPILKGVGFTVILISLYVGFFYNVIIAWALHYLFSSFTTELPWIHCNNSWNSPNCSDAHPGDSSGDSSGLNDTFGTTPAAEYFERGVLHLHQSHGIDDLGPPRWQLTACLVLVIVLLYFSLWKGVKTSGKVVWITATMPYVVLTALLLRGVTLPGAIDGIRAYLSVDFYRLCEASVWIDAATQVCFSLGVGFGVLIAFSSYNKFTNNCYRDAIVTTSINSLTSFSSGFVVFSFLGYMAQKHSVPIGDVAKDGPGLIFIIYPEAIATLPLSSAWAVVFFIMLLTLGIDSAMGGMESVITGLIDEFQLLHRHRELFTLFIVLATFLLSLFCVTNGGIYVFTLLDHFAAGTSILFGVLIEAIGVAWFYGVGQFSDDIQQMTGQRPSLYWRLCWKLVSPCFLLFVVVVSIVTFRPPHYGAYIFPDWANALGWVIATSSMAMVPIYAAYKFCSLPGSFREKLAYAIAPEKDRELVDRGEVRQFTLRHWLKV
Chain of Dopamine D3 (P35462 whole entry): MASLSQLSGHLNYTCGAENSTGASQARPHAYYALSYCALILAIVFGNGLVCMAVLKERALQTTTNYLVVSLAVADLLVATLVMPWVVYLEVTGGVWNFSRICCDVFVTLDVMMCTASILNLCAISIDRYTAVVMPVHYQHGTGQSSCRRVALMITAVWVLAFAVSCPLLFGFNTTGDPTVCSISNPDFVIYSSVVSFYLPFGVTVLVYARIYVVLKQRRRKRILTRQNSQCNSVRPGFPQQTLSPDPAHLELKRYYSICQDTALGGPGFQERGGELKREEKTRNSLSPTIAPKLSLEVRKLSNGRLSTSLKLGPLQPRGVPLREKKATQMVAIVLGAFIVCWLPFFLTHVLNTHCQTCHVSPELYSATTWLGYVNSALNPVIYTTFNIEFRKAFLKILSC

`COC(=O)[C@@H](c1ccc(-c2ccccc2)cc1)[C@H]1C=CCCN1` [Compound 2]: the IC50 came to 88.2 µM on Dopamine D2L, 13.4 µM on Serotonin 5HT2C, 94.5 µM on Serotonin 5HT6 and 13.8 µM in assay [1]. In addition, the Ki at Dopamine D2L worked out at 29.4 µM; at Serotonin 5HT2C it was 7.03 µM; at Serotonin 5HT6, 43.9 µM; in assay [1] it was 11 µM. The inhibition at 10 µM was found to be 13% on Dopamine D2L (Dopamine D2l, 10 μM, read-out: Percentage Inhibition); 15% at Dopamine D3; 52% at Serotonin 5HT2C (Serotonin 5HT2C, 10 μM, read-out: Percentage Inhibition); 33% in assay [1] (Dopamine transporter (DAT), 10 μM, read-out: Percentage Inhibition). The inhibition at 100 µM was 54% at Dopamine D2L (Dopamine D2l, 100 μM, read-out: Percentage Inhibition); 53% on Serotonin 5HT6 (Serotonin 5HT6, 100 μM, read-out: Percentage Inhibition); 74% in assay [1] (Dopamine transporter (DAT), 100 μM, read-out: Percentage Inhibition). The nH at Dopamine D2L (Dopamine D2l, Hill coefficient) was found to be 0.716; on Serotonin 5HT2C (Serotonin 5HT2C, Hill coefficient), 1.12; at Serotonin 5HT6 (Serotonin 5HT6, Hill coefficient) it was 1.12; in assay [1] (Dopamine transporter (DAT), Hill coefficient) it was 1.3. The inhibition at 30 µM at Serotonin 5HT2C (Serotonin 5HT2C, 30 μM, read-out: Percentage Inhibition) came out at 70%. In addition, the “PPI over the control across all pre-pulse intensities” value with ckr mouse is reported as “trend of increased PPI”.
